Data taken from patent publication US20040006236A1, “Diaminopropionic acid derivatives” (priority 1999, published 2004).
Like-named read-outs stand apart in the source and are kept apart here.

Assays:
[1] = molecular target: T1, ICAM-1 binding to immobilized Mac-1 (Homo sapiens, UniProt P05107+P11215); assay: Mac-1/ICAM-1 screening assay (solid-phase ELISA)
T1 construct: made in house; host or cells: transfected 293 cells (Mac-1)
Procedure: (b) Mac-1/ICAM-1 screening test: Mac-1/ICAM-1 antagonist activity, defined as the ability to compete with ICAM-1 binding to immobilized Mac-1, was quantitated by a solid-phase ELISA.
(§1) Membrane-bound Mac-1 derived from transfected 293 cells was coated onto 96-well microtiter plates (50 μL/well, 3 μg/mL Mac-1 in 20 mM Hepes, pH 7.2/0.14 M NaCl/1 mM MnCl2) overnight at 4° C. The plates were blocked with 100 μL/well of 0.5% BSA in 20 mM Hepes, pH 7.2/0.14 M NaCl/1 mM MnCl2 at 37° C. for 1 h and washed 3 times (120 μL each) with Binding Buffer (20 mM Hepes, pH 7.2/0.14 M NaCl/1 mM MnCl2/0.05% Tween 20). Test compounds were dissolved in 100% DMSO and diluted 1:50 in Binding Buffer plus 10% DMSO. A series of 1:4 dilutions were performed for each compound (concentration range, 0.12 nM-20 μM). Each dilution (25 μL/well) was added to the plates, followed by 25 μL/well of 5 dICAM-Ig (40 μg/mL in Binding Buffer). The plates were shaken vigorously for 1 min (room temperature), followed by gentle agitation for 2 h (37° C.), and washed with Binding Buffer (3 times, 120 μL each). HRP-conjugated goat anti-human IgG(Fc-specific) antibody (0.125 μg/mL in Binding Buffer plus 0.05% BSA) was added to each well (50 μL/well), followed by incubation for 1 h at 37° C. The plates were then washed 3 times with Binding Buffer (120 μL each). TMB solution (100 μL/well) was added to each well for color development for 10 min. The reaction was stopped with 1 M H3PO4 (100 μL/well) and the plates were read at 450 nm. The inhibitory activities of test compounds were determined by the IC50s.
as §1, with “Mac-1/ICAM-1 antagonist activity, defined as the ability to compete with ICAM-1 binding to immobilized Mac-1, was quantitated by a solid-phase ELISA. Membrane-bound” for “Membrane-bound”, “5dICAM-Ig” for “5 dICAM-Ig”, “nm.” for “nm. The inhibitory activities of test compounds were determined by the IC50s.”

[2] = molecular target: T2, LFA-1 binding to immobilized ICAM-1 (Homo sapiens, UniProt P05107+P20701); assay: LFA-1/ICAM-1 protein-protein assay (solid-phase ELISA)
T2 construct: made in house; host or cells: transfected 293 cells (LFA-1)
T2 sequence (P20701 26-1170): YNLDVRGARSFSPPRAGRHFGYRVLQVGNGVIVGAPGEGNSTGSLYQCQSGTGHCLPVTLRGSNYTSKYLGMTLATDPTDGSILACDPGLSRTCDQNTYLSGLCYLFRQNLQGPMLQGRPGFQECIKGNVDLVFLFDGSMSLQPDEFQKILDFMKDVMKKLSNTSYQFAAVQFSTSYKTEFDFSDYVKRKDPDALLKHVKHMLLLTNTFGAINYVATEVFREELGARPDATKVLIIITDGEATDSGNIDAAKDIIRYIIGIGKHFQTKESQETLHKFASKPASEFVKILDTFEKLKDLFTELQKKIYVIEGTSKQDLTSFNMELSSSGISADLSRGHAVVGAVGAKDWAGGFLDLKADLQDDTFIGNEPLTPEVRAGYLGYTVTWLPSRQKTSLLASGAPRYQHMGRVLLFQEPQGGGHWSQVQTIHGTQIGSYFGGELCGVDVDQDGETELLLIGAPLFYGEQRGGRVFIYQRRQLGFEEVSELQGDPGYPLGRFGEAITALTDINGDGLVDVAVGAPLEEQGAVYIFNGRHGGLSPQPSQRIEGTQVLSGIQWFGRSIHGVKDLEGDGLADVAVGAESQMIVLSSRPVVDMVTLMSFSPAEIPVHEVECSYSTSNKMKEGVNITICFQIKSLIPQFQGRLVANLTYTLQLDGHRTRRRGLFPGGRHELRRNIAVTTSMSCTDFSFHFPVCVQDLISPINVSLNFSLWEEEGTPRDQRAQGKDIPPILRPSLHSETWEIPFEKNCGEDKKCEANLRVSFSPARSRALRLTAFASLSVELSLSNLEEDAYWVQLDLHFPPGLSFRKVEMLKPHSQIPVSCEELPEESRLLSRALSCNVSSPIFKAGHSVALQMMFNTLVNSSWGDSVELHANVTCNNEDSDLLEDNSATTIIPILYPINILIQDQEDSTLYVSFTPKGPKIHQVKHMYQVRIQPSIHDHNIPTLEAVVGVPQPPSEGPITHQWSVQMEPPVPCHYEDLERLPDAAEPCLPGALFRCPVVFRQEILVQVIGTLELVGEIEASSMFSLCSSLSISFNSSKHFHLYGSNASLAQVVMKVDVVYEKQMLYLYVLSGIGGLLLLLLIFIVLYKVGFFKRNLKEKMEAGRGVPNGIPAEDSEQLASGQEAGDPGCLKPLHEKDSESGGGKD
T2 sequence (P05107 23-769): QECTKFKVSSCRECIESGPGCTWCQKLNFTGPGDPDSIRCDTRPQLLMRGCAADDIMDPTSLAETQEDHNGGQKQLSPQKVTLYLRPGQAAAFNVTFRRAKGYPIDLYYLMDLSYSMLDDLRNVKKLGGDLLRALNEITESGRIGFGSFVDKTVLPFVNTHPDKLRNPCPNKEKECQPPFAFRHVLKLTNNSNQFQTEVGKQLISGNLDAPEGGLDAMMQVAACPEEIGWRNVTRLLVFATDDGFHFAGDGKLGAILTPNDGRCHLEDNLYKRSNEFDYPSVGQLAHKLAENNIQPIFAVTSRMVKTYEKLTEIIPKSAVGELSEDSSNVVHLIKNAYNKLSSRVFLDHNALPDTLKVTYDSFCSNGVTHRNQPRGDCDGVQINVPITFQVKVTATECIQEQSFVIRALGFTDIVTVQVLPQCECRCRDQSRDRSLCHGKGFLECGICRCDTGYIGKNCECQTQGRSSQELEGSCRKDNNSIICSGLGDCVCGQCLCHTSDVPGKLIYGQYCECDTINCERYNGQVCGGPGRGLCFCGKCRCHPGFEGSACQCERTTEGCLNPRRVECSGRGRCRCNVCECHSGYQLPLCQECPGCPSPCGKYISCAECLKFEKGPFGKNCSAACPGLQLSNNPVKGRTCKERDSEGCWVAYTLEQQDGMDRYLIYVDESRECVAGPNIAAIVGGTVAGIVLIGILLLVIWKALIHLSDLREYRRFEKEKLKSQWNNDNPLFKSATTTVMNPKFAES
Procedure: (a) LFA-1/ICAM-1 screening test: LFA-1/ICAM-1 antagonist activity, defined as the ability of compounds of the invention to block LFA-1 binding to immobilized ICAM-1, was quantitated using a solid-phase ELISA.
(§2) Typically, fusion protein consisting of the entire extracellular domain of human ICAM-1 and the Fc domain of human IgG (5dICAM-Ig) was coated onto 96-well microtiter plates (0.15 μg in 100 μL PBS) overnight at 4° C. The plates were then blocked with 150 μL of 1% BSA/1 mM MnCl2/0.14 M NaCl/20 mM HEPES, pH 7.2 for 1 h at 37° C. and washed 3 times (150 μL each) with Wash Buffer (50 mM Tris, pH 7.4/100 mM NaCl/1 mM MnCl2/0.05% Tween 20). Stock solutions (100 μM in 100% DMSO) of test compounds were diluted 50 fold with 150 μL of Binding Buffer (0.05% BSA/0.05% Tween 20/1 mM MnCl2/0.14 M NaCl/20 mM HEPES, pH 7.2) plus 10% DMSO. […] Fifty μL per well of each dilution was added to the ICAM-1 coated plates, followed by 50 μL per well of membrane-bound LFA-1 (280 ng/mL in Binding Buffer) derived from transfected 293 cells. The plates were shaken vigorously for 1 min (room temperature) and gently for 2 h (37° C.). After incubation, the plates were washed 3 times (150 μL each) with Wash Buffer. Mouse anti-human integrin β2 monoclonal antibody was added (100 μL/well, 1 μg/mL in Binding Buffer) and allowed to incubate for 1 h (37° C.) with gentle agitation. The plates were then washed 3 times with Wash Buffer. HRP-conjugated goat anti-mouse IgG (100 μL/well, 1:1500 dilution in Binding Buffer) was added to each well, followed by incubation for 1 h (37° C.), and concluded by three washes (150 μL each) with Wash Buffer. TMB solution (100 μL per well) was added for color development (10 min). The reaction was stopped by the addition of 100 μL of 1 M H3PO4 to each well. The plates were then read at 450 nm. The inhibitory activities of test compounds were determined by the IC50s.
as §2, with “LFA-1/ICAM-1 antagonist activity, defined as the ability to block LFA-1 binding to immobilized ICAM-1, was quantitated using a solid-phase ELISA. Typically,” for “Typically,”, “(0.05 %” for “(0.05%”, “nm.” for “nm. The inhibitory activities of test compounds were determined by the IC50s.”

[3] = read-out: Mac-1/ICAM-1 Protein-Protein Assay IC50
[4] = read-out: LFA-1/ICAM-1 Protein-Protein Assay IC50

T1 sequence (P05107 23-769, other chains not shown): as the sequence (P05107 23-769) above

IC50 ([1]; read-out: Mac-1/ICAM IC50) | IC50 ([2]; read-out: LFA-1/ICAM IC50) | IC50 [1, 3] | IC50 [2, 4] | SMILES
43.4 nM | 1.2 nM |  |  | COc1cccc(C(=O)NC[C@H](NC(=O)c2ccc(C(=O)NCc3cccc(O)c3)cc2Cl)C(=O)O)c1 [Compound A, N-[2-chloro-4-[[[(3-hydroxyphenyl)methyl]amino]carbonyl]benzoyl]-3-(3-methoxybenzoyl)amino-L-alanine]
31.2 nM | 0.9 nM |  |  | O=C(NCc1cccc(O)c1)c1ccc(C(=O)N[C@@H](CNC(=O)c2ccccc2)C(=O)O)c(Cl)c1 [Compound B, 3-benzoylamino-N-[2-chloro-4-[[[(3-hydroxyphenyl)methyl]amino]carbonyl]benzoyl]-L-alanine]
101 nM | 6.4 nM |  |  | O=C(NCc1cccc(O)c1)c1ccc(C(=O)N[C@@H](CNC(=O)c2cc([N+](=O)[O-])[nH]n2)C(=O)O)c(Cl)c1 [Compound C, N-[2-chloro-4-[[[(3-hydroxyphenyl)methyl]amino]carbonyl]benzoyl]-3-(5-nitropyrazole-3-carbonyl)amino-L-alanine]
6.4 nM | 0.5 nM |  |  | O=C(NCc1cccc(O)c1)c1ccc(C(=O)N[C@@H](CNC(=O)c2cccs2)C(=O)O)c(Cl)c1 [Compound D, N-[2-chloro-4-[[[(3-hydroxyphenyl)methyl]amino]carbonyl]benzoyl]-3-(thiophene-2-carbonyl)amino-L-alanine]
521 nM | 15.2 nM |  |  | COc1cc(C(=O)NC[C@H](NC(=O)c2ccc(C(=O)NCc3cccc(O)c3)cc2Cl)C(=O)O)nc2ccccc12 [Compound E, N-[2-chloro-4-[[[(3-hydroxyphenyl)methyl]amino]carbonyl]benzoyl]-3-(4-methoxyquinoline-2-carbonyl)amino-L-alanine]
81.7 nM | 6.4 nM |  |  | O=C(NC[C@H](NC(=O)c1c(Cl)cccc1Cl)C(=O)O)c1ccc(Br)s1 [Compound F, 3-(5-bromothiophene-2-carbonyl)amino-N-(2,6-dichlorobenzoyl)-L-alanine]
22.4 nM | 1.3 nM |  |  | O=C(NCc1cccc2[nH]ccc12)c1ccc(C(=O)N[C@@H](CNC(=O)c2cccs2)C(=O)O)c(Cl)c1 [Compound G, N-[2-chloro-4-[[(1H-indol-4-ylmethyl)amino]carbonyl]benzoyl]-3-(thiophene-2-carbonyl)amino-L-alanine]
43.4 nM | 1.4 nM |  |  | O=C(CCc1cccc(O)c1)c1ccc(C(=O)N[C@@H](CNC(=O)c2cccs2)C(=O)O)c(Cl)c1 [Compound H, N-[2-chloro-4-[1-oxo-3-(3-hydroxyphenyl)propyl]benzoyl]-3-(thiophene-2-carbonyl)amino-L-alanine]
75.5 nM | 2.6 nM |  |  | O=C(NC[C@H](NC(=O)c1ccc(-n2nnnc2NCc2cccc(O)c2)cc1Cl)C(=O)O)c1cccs1 [Compound I, N-[2-chloro-4-[5-[[(3-hydroxyphenyl)methyl]amino]tetrazol-1-yl]benzoyl]-3-(thiophene-2-carbonyl)amino-L-alanine]
1410 nM | 11.9 nM |  |  | O=C(NCc1cccc2[nH]ccc12)c1ccc(C(=O)N[C@@H](CNCc2ccccc2)C(=O)O)c(Cl)c1 [Compound J, 3-(phenylmethyl)amino-N-[2-chloro-4-[[(1H-indol-4-ylmethyl)amino]carbonyl]benzoyl]-L-alanine]
 |  | 105 nM | 1 nM | O=C(NCc1cccc(O)c1)c1ccc(C(=O)N[C@@H](CNC(=O)c2ccccn2)C(=O)O)c(Cl)c1 [Example 162]
 |  | 68 nM | 3 nM | O=C(NCc1cccc(O)c1)c1ccc(C(=O)N[C@@H](CNC(=O)c2cccnc2Cl)C(=O)O)c(Cl)c1 [Example 166]
 |  | 39 nM | 2.2 nM | O=C(NCc1cccc(O)c1)c1ccc(C(=O)N[C@@H](CNC(=O)c2ccc(Cl)nc2)C(=O)O)c(Cl)c1 [Example 167]
 |  | 224 nM | 12 nM | COc1ccc(C(=O)NC[C@H](NC(=O)c2ccc(C(=O)NCc3cccc(O)c3)cc2Cl)C(=O)O)c(OC)n1 [Example 168]
 |  | 136 nM | 1 nM | O=C(NCc1cccc(O)c1)c1ccc(C(=O)N[C@@H](CNC(=O)c2nccnc2C(=O)Nc2ccc(Cl)cn2)C(=O)O)c(Cl)c1 [Example 171]
 |  | 538 nM | 7 nM | O=C(NCc1cccc(O)c1)c1ccc(C(=O)N[C@@H](CNC(=O)c2c[nH]c(=O)[nH]c2=O)C(=O)O)c(Cl)c1 [Example 172]
